Series [1] is described as follows: Determination of CPT-11 dose in non-tumor bearing BDF-1 mice (weight loss, death). Type of series: in vivo. As to conditions: single i.p. bolus. The protocol:
Animal weight loss was monitored as an indication of toxicity caused by anticancer chemotherapy agents. The effect of CPT-11 on weight loss in non-tumor bearing BDF-1 mice was studied using six different dosages: 100, 200, 300, 400, 600, or 800 mg/kg body weight to determine the maximum tolerable dose in mice. A single bolus dose of CPT-11 was administered intraperitoneally (i.p.) at the beginning of the study, and weight loss was monitored daily for 12 days.
One dose of CPT-11 was administered i.p. to each mouse at the beginning of the study, and the weight loss of the animal was then monitored daily for 12 days.

For another series, the system named is colorectal cancer. As to conditions: cited from earlier work; for Median survival time / Median time to disease progression: NS.
Series [2] is described as follows: Pharmacokinetics of CPT-11/FU/LV in BDF-1 mice bearing Colon 38 tumor. Type of series: in vivo. As to conditions: triple combination CPT-11/FU/LV. The text has this: The pharmacokinetic data of CPT-11/FU/LV in BDF-1 mice bearing Colon 38 tumor in the presence and absence of PHY906 are shown in FIGS. 18-20. PHY906-6 is a clinical batch of PHY906, containing 10% excipient (starch).

A short description of series [3]: Toxicity (tolerable dose, body weight loss, death) in nude mice bearing human HepG2 xenografts. The format is in vivo, NCr-nude mice. The protocol:
Weight loss was observed immediately after CPT-11 treatment and continued for six days in mice injected with 400 mg/kg of CPT-11. These animals gradually recovered their original body weight on day 12. […] The maximum tolerable dose of CPT-11 in nude mice bearing the human HepG2 xenografts was 200 mg/kg (data not shown).
Human HepG2 tumor cells were implanted into NCr-nude mice to test the effect of PHY906 on the antitumor activity of CPT-11. […] CPT-11 (200 mg/kg, i.p.) was given on day 0. PHY906 was given twice daily at 500 mg/kg starting on day 0.
Based upon the known pharmacological profiles of herbs contained in PHY906, it was speculated that the enhancing effects might act through immunological and/or hematological systems in normal mice. Therefore, experiments were designed to test the hypothesis in nude mice, which are deficient in immunological and hematological systems. Human hepatocellular carcinoma HepG2 cells were implanted into NCr-nude mice to test the effect of PHY906 on the antitumor activity of CPT-11. […] CPT-11 (200 mg/kg, i.p.) was given on day 0. PHY906 was given twice daily at 500 mg/kg starting on day 0 and continued for 8 days. As shown in 31, PHY906 enhanced the antitumor effect of CPT-11 on human HepG2 xenografts in nude mice.
(In general: Xenograft models place foreign cells or tissue in a host animal.)

Series [4] in a line: Host toxicity (body weight loss, mortality, blood cell counts) in chemotherapy treated BDF-1 mice bearing Colon 38 tumor. Type of series: in vivo. The protocol:
Anti-Tumor Studies: Murine Colon 38 (1-2×10^6 cells in 0.1 ml PBS) or human HepG2 cells (1-2×10^6 cells in 0.1 ml PBS) were transplanted subcutaneously into BDF1 or NCr athymic nude mice, respectively. The length and width of the tumors were measured daily with sliding calipers. The tumor weight was estimated according to the following formula (Pizzorno G, Wiegand R, Lentz S, et al., Cancer Res. 52:1660-1665 (1992)): Tumor weight (mg)=length (mm)×width (mm)^2/2.
After 10 to 14 days, mice (five animals/group) with tumor weights ranging from 150-200 mg were selected for drug studies (Guo X, Lerner-Tung M, Chen H X, et al., Biochem Pharmacol 49:1111-1116 (1995)). Mice were sacrificed when the tumor size reached 10% of body weight. PHY906 was administered orally either alone or with anti-cancer chemotherapeutic agents. The effect of PHY906 on antitumor efficacy and the reduction of toxicity by the agents were evaluated. CPT-11 was given intraperitoneally (i.p.) 30 min after PHY906 administration with the selected dose. The regimen of FU/LV combination therapy was given as follows:
The first day of treatment was defined as day 0. PHY906 was given orally twice a day (10 am and 3 pm) for either 4 or 8 days beginning on day 0. For the control group, mice were administrated a vehicle, either PBS for i.p. or H2O for p.o. (oral administration). Animals were monitored for mortality, weight loss, and tumor size daily.
Blood Cell Counts: Blood (20 μl) was taken from mice on days 0, 3, 6, 9 and 12 with micro-capillary tubes. Blood was then be diluted to 200 μl with normal saline (0.85% Sodium Chloride). WBC, RBC and platelets were counted by a BAKER SYSTEM 9100™ […] (Biochem ImmunoSystems Inc., Allentown, Pa. 18103-9562).
PHY906 was evaluated as a modulator of CPT-11 therapy for toxic side effects in mice inoculated with Colon 38 tumor cells. Based on the previous findings (Example 2), a single bolus dose of 400 mg/kg CPT-11 was selected to study the effect of PHY906 on weight-loss associated with toxicity of CPT-11. To evaluate whether PHY906 impairs the antitumor efficacy of CPT-11, mice were implanted subcutaneously with Colon 38 tumor cells. Ten to 14 days after inoculation, mice were treated with CPT-11 (400 mg/kg, i.p.) in the absence or presence of PHY906, which was given orally twice a day at varying doses (125 mg/kg, 250 mg/kg, and 500 mg/kg). PHY906 treatment was continued at the dose indicated for 8 consecutive days.
Mice were divided into four groups with different treatment regimens: Group (A) treatment with vehicle; Group (B) treatment with a single dose of 400 mg/kg CPT-11 by i.p. injection; Group (C) treatment with PHY906 (500 mg/kg/b.i.d.) alone; or Group (D) treatment with a single dose of 400 mg/kg CPT-11 plus 500 mg/kg/b.i.d. PHY906 for 4 or 8 days. The sequence of each treatment regimen appears in Materials and Methods. As depicted in Table 9, 35 of 35 tumor-bearing mice (100%) from Group A and 15 of 15 mice (100%) from Group C survived treatment with either vehicle or PHY906 alone for 4 or 8 days, indicating no or very low toxicity for PHY906.

A further series relates to hepatocellular carcinoma. As to conditions: cited from earlier work.
A short description of series [5]: Pharmacokinetics of capecitabine in animal models. Type of series: in vivo, mouse. The method, then: (§1) Plasma Handling: The mouse plasma was separated from the blood by centrifugation at 10,000 g at 4° C. for 10 min.
a) Capecitabine-containing sample: The plasma (50 μl) was extracted with 200 μl of acetonitrile in the presence of 10 μl of 5-iodouracil (IU)(50 μg/ml) as an internal standard. After centrifugation, the supernatant from capecitabine-containing sample was dried by a speedvac, reconstituted with 50 μl of 0.1 M sodium acetate buffer (pH 4.8), and extracted with 1.3 ml of water-saturated ethyl acetate. The organic layer was separated after centrifugation (10,000 g at 4° C. for 10 min), dried by a speedvac and reconstituted with 100 μl of water.
(§2) The resultant analyte was then analyzed by HPLC with UV absorption and/or radioactivity.

Series [6] in a line: Pharmacokinetics of gemcitabine (dFdC) and dFdU in plasma of PAN02 bearing BDF-1 mice. The format is in vivo. As to conditions: for AUC, dFdC + PHY906: PHY906 500 mg/kg 30 min before gemcitabine; for AUC, dFdC alone: gemcitabine 600 mg/kg. The protocol: as §1
b) Gemcitabine-containing plasma: The plasma (50 μl) was extracted with 200 μl of acetonitrile (ACN) in the presence of 5 μl of 0.1 mM AZT as an internal standard. After centrifugation, the supernatant was dried by a Speedvac, reconstituted with 100 μl of solution containing 2.5% ACN and 97.5% of 15 mM ammonium acetate (pH 5.0).
as §2
To determine, for a future clinical trial, if PHY906 would change the metabolism of gemcitabine, a pharmacokinetics analysis in mice bearing pancreatic cancer was performed. Mice were divided into three sets of 15: gemcitabine only, gemcitabine plus PHY906, and vehicle control. Each mouse in the set was bled twice at two different time points. Plasma was processed as described in Materials and Methods and analyzed by HPLC with radioactivity confirmation of peak identity and quantitation.

The mark [7] stands for this setting: CPT-11 400 mg/kg, 1 day, alone, observed 14 days.

Consider six molecules from US7534455B2, “Herbal composition PHY906 and its use in chemotherapy” (Yale University, priority 2000, dated 2009).

Molecules are shown by their SMILES. Read-outs that look alike come from different tables or passages of the source.

In the case of `CCc1c2c(nc3ccc(OC(=O)N4CCC(N5CCCCC5)CC4)cc13)-c1cc3c(c(=O)n1C2)COC(=O)[C@]3(O)CC` [CPT-11, Irinotecan], in series [1], the “Dosages with little effect on body weight” value was “lower than 200 mg/kg” and the “Doses resulting in animal death on the second day” value is “greater than or equal to 600 mg/kg”. In addition, the “Doses mice were able to tolerate” value in series [1] (12 days) is “up to 400 mg/kg”. Also, in the series with colorectal cancer (advanced colorectal cancer), the “Response rate, second-line therapy” value is recorded as 10%-15%. The “Level in tumor or liver tissues after PHY906 co-administration” value in series [2] was “no significant change”. The “AUC in plasma after co-administration of PHY906” value in series [2] (PHY906-6) is “increases”. Further, in series [3], the Maximum tolerable dose was 200 mg/kg. Further, in series [4] (setting [7]), the Survival came out at 82.5% and the “Total No. of Mice Survived N” value worked out at 33. Moreover, in series [4] (CPT-11 treated mice, observed for 14 days), the “Animal Death (Death/Total)” value is given as 7/40.

Consider `O=c1[nH]cc(F)c(=O)[nH]1` [FU, 5-fluorouracil], for which the “Response rate in patients with advanced disease” value in the series with colorectal cancer (human, in vivo) is 10%-12%. The “AUCs of FU and its nucleoside/nucleotide metabolites (FU+FUR+FUMP) in plasma or liver after PHY906 co-administration” value in series [2] was “change”.

As to `CCc1c2c(nc3ccc(O)cc13)-c1cc3c(c(=O)n1C2)COC(=O)[C@]3(O)CC` [SN-38], the “Level in plasma, liver, or tumor after PHY906 co-administration” value in series [2] was “remains unchanged”.

Regarding `CCCCCOC(=O)Nc1nc(=O)n([C@@H]2O[C@H](C)[C@@H](O)[C@H]2O)cc1F` [capecitabine, 5′-deoxy-5-fluoro-N-[(pentyloxy)carbonyl]-cytidine], the Median survival time with colorectal cancer (Hoff et al. 2001) was 380 days; in the series with colorectal cancer (Van Cutsem et al. 2001), 404 days. Moreover, the figures for the “Median time to disease progression” value in the series on colorectal cancer (Hoff et al. 2001) and with colorectal cancer (Van Cutsem et al. 2001) were 128 days and 137 days, respectively. The Response rate with colorectal cancer (Hoff et al. 2001, P=0.0014) is listed as 21%; in the series on colorectal cancer (Van Cutsem et al. 2001, P=0.027), 21%; with hepatocellular carcinoma (55 patients with nonresectable hepatobiliary carcinoma), 13%; with hepatocellular carcinoma (hepatocellular carcinoma / liver cancer, systemic chemotherapy), 13%. The “Pharmacokinetic profile on co-administration of PHY906” value in series [5] is “did not alter the pharmacokinetic profile”.

On to `O=c1ccn(C2OC(CO)C(O)C2(F)F)c(=O)[nH]1` (stereo not shown) [dFdU], for which, in series [6] (Radioactivity detection), the “Cmax, dFdC + PHY906” value turned out to be 48000 ng/mL; the “Cmax, dFdC alone” value came out at 31000 ng/mL; the “Tmax, dFdC + PHY906” value came to 2 h; the “Tmax, dFdC alone” value was 1 h. Also, in series [6] (Radioactivity detection), the “T½, dFdC + PHY906” value is 0.82 h; the “T½, dFdC alone” value amounted to 1.55 h; the “AUC, dFdC + PHY906” value is 8.5 mg·min/mL; the “AUC, dFdC alone” value was found to be 5.8 mg·min/mL. In series [6] (UV detection), the “Cmax, dFdC + PHY906” value is 22000 ng/mL; the “Cmax, dFdC alone” value was 14000 ng/mL; the “Tmax, dFdC + PHY906” value amounted to 2 h; the “Tmax, dFdC alone” value came to 1 h. Besides, in series [6] (UV detection), the “T½, dFdC + PHY906” value was found to be 1.16 h; the “T½, dFdC alone” value was 1.64 h; the “AUC, dFdC + PHY906” value is 4.4 mg·min/mL; the “AUC, dFdC alone” value was found to be 3.1 mg·min/mL. Also, the “Levels in circulation in the presence or absence of PHY906” value in series [6] (plasma) is “not a dramatic difference”.

Turning to `COc1cccc2c1C(=O)c1c(O)c3c(c(O)c1C2=O)C[C@@](O)(C(=O)CO)C[C@@H]3O[C@H]1C[C@H](N)[C@H](O)[C@H](C)O1` [doxorubicin, Doxorubicin], in the series with hepatocellular carcinoma (eight trials, 475 evaluable patients (range 0-35%)), the Response rate is reported as 16%.
